# Reference: PMC11521309, “A novel 4-aminoquinoline chemotype with multistage antimalarial activity and lack of cross-resistance with PfCRT and PfMDR1 mutants” (PLOS Pathogens, 2024)
# Several values for one entry are separate records, joined by “and”; a condition that tells them apart may be missing. Identical values can stand only once. Like-named read-outs stand apart in the source and are kept apart here.
# How the values were obtained:
# [1] = test system: P. falciparum Dd2^T93S; parameters: key to Phenotype, Dd2^T93S: S: sensitive; R: resistant; conditions: cited from earlier work
# [2] = test system: P. falciparum Dd2^H97Y; parameters: key: S: sensitive; R: resistant; conditions: ref [19],[20],[51]; cited from earlier work
# [3] = test system: P. falciparum Dd2^I218F; parameters: key to Phenotype, Dd2^I218F: S: sensitive; R: resistant; conditions: cited from earlier work
# [4] = test system: P. falciparum 7G8^7G8; parameters: key to Phenotype, 7G8^7G8: S: sensitive; R: resistant; conditions: cited from earlier work
# [5] = MTT cytotoxicity assay, 72 h; format: cell-based, Human; conditions: human, HepG2 cells; MTT, 72 h, N = 3
# Protocol: (§1) Human hepatoma (HepG2) and fibroblast-like monkey kidney cells (COS-7) were cultured in Dulbecco’s Modified Eagle Medium supplemented with 10% heat-inactivated fetal bovine serum and gentamycin (40 mg/L) at 37°C in a 5% CO2 atmosphere. Cytotoxicity of test compounds was measured by metabolic reduction of mitochondrial enzymes using the MTT assay (3-[4,5-dimethyl-thiazol-2-yl]-2,5-diphenyltetrazolium chloride). Cells were seeded at 10^5 cells/well in 96-well plates and incubated for 72 hours in the presence of a 2-fold 12-point serial dilution of drugs along with drug-free controls. After adding 15 μL of MTT (5 mg/mL) to the wells, plates were centrifuged at 317g for 5 minutes and the pellet was resuspended in isopropanol. Absorbance was measured at 570 nm (CLARIOStar, Labtech BMG). Cell viability was determined by formazan production, and was expressed as a percentage of untreated control wells.
# [6] = test system: HepG2 cells; experiment: MTT cytotoxicity assay, 72 h; format: cell-based, Human
# Protocol: as §1
# [7] = Host cell confluency, Alamar Blue; format: cell-based, human; conditions: human, pH 7; maximum concentration of 4 μM; read-out: Huh-7 cell viability
# Protocol: (§2) In vitro inhibition of Plasmodium liver stage infection was assessed using bioluminescence data from Huh-7 cells infected with a firefly-luciferase-expressing P. berghei line, PbGFP-Luccon, in the presence of various compound concentrations. […] One day before drug treatment and infection, 10^4 Huh-7 cells/well were seeded in 96-well plates. The medium was then replaced by an infection medium (culture medium supplemented with 50 μg/mL gentamycin and 0.8 μg/mL amphotericin B) containing desired concentrations of test compounds. Fresh sporozoites recovered from salivary glands of infected female Anopheles stephensi mosquitoes were added to seeded Huh-7 cells at a 1:1 proportion, followed by centrifugation at 1700g for 5 minutes and incubation for 46 hours at 37°C under 5% CO2. Compound toxicity against Huh-7 cells was assessed by measuring […] using the Alamar Blue assay (Invitrogen). IC50 values were calculated using nonlinear regression analysis (GraphPad Prism version 9).
# [8] = test system: Huh-7 cells; experiment: Host cell confluency, Alamar Blue; format: cell-based, human
# Protocol: as §2
# [9] = test system: P. falciparum 7G8^7G8; experiment: ABS susceptibility, pfcrt-edited line; format: cell-based; conditions: Plasmodium falciparum
# Protocol: (§3) P. falciparum ABS parasites were cultured at 3% hematocrit in human O^+ RBCs in RPMI-1640 media supplemented with 25 mM HEPES, 50 mg/L hypoxanthine, 2 mM L-glutamine, 0.21% sodium bicarbonate, 0.5% (w/v) AlbuMAXII (Invitrogen) and 10 μg/mL gentamycin. Culture flasks were kept in modular incubator chambers (Billups-Rothenberg) in a 5% O2, 5% CO2, and 90% N2 atmosphere at 37°C. Synchronized ring-stage parasites were obtained by two consecutive rounds of treatment with 5% D-sorbitol in 48-hour intervals. […] This was done by exposing cultures at 1% hematocrit and 0.3% parasitemia in 96-well plates in the presence of drugs in a two-fold 10 or 12-point serial dilution in duplicate along with drug-free controls. After a 72-hour incubation, parasite survival was assessed by flow cytometry on an iQue flow cytometer (Sartorius) using SYBR Green and MitoTracker Deep Red FM (Life Technologies) as nuclear stain and vital dye, respectively. Parasite survival was determined as a percentage relative to drug-free control. IC50 values were interpolated from log concentration versus response curves in Prism 9 (GraphPad Prism Software Inc.).
# [10] = test system: P. falciparum 7G8^C350R; experiment: ABS susceptibility, pfcrt-edited line; format: cell-based; conditions: Plasmodium falciparum
# Protocol: as §3
# [11] = test system: P. falciparum 7G8^F145I; experiment: ABS susceptibility, pfcrt-edited line; format: cell-based; conditions: Plasmodium falciparum
# Protocol: as §3
# [12] = test system: P. falciparum Dd2^3D7; experiment: ABS susceptibility, pfcrt-edited line; format: cell-based; conditions: Plasmodium falciparum
# Protocol: as §3
# [13] = test system: P. falciparum Dd2^Dd2; experiment: ABS susceptibility, pfcrt-edited line; format: cell-based; conditions: Plasmodium falciparum
# Protocol: as §3
# [14] = test system: P. falciparum Dd2^F145I; experiment: ABS susceptibility, pfcrt-edited line; format: cell-based; conditions: Plasmodium falciparum
# Protocol: as §3
# [15] = test system: P. falciparum Dd2^G353V; experiment: ABS susceptibility, pfcrt-edited line; format: cell-based; conditions: Plasmodium falciparum
# Protocol: as §3
# [16] = test system: P. falciparum Dd2^H97Y; experiment: ABS susceptibility, pfcrt-edited line; format: cell-based; conditions: Plasmodium falciparum
# Protocol: as §3
# [17] = test system: P. falciparum Dd2^I218F; experiment: ABS susceptibility, pfcrt-edited line; format: cell-based; conditions: Plasmodium falciparum
# Protocol: as §3
# [18] = test system: P. falciparum Dd2^M343L; experiment: ABS susceptibility, pfcrt-edited line; format: cell-based; conditions: Plasmodium falciparum
# Protocol: as §3
# [19] = test system: P. falciparum Dd2^T93S; experiment: ABS susceptibility, pfcrt-edited line; format: cell-based; conditions: Plasmodium falciparum
# Protocol: as §3
# [20] = Dd2T93S, mean ± SEM, ref 2 (Dhingra et al., 2019)
# [21] = Dd2I218F, mean ± SEM, ref 2 (Dhingra et al., 2019)
compound,measurement,setting,value
"CCN(CC)CCCC(C)Nc1ccnc2cc(Cl)ccc12 (centres unmarked) [CQ, chloroquine]",IC50,[1]; [20],61.9 ± 7.6 nM
same,IC90,[1]; [20],141 ± 6.3 nM
same,"Phenotype, Dd2^T93S","[1]; ref [19],[20],[51]",R
same,"Phenotype, Dd2^H97Y",[2],R
same,IC50,[3]; [21],36.7 ± 4.3 nM
same,IC90,[3]; [21],85.3 ± 4.9 nM
same,"Phenotype, Dd2^I218F","[3]; ref [19],[20],[51]",S
same,IC50,"[4]; 7G87G8, mean ± SEM, ref 3 (Kim et al., 2019)",83 ± 7.5 nM
same,"Phenotype, 7G8^7G8","[4]; ref [19],[20],[51]",R
COc1cc2nccc(Nc3cccc(Oc4ccccc4)c3)c2cc1OC [LDT-623],CC50 at 72 h,[5],1300 ± 100 nM
same,SI (CC50 HepG2 / IC50 3D7),[6],10
same,"viability at 46 h, 4 µM",[7],> 86%
same,% Confluency,"[8]; 0.01 µM, Average",101.66%
same,% Confluency,"[8]; 0.01 µM, Rep #1, Rep #2 singly, DMSO = 100",99.85% and 103.48%
same,% Confluency,"[8]; 0.10 µM, Average",101.70%
same,% Confluency,"[8]; 0.10 µM, Rep #1, Rep #2 singly, DMSO = 100",101.55% and 101.85%
same,% Confluency,"[8]; 0.50 µM, Average",106.57%
same,% Confluency,"[8]; 0.50 µM, Rep #1, Rep #2 singly, DMSO = 100",104.91% and 108.24%
same,% Confluency,"[8]; 1.00 µM, Average",99.74%
same,% Confluency,"[8]; 1.00 µM, Rep #1, Rep #2 singly, DMSO = 100",99.78% and 99.70%
same,% Confluency,"[8]; 1.50 µM, Average",103.34%
same,% Confluency,"[8]; 1.50 µM, Rep #2 only, DMSO = 100",103.34%
same,% Confluency,"[8]; 2.00 µM, Average",99.65%
same,% Confluency,"[8]; 2.00 µM, Rep #1, Rep #2 singly, DMSO = 100",99.68% and 99.63%
same,% Confluency,"[8]; 3.00 µM, Average",92.74%
same,% Confluency,"[8]; 3.00 µM, Rep #1, Rep #2 singly, DMSO = 100",93.69% and 91.80%
same,% Confluency,"[8]; 4.00 µM, Average",86.71%
same,% Confluency,"[8]; 4.00 µM, Rep #1 only, DMSO = 100",86.71%
same,IC50,[9],579 ± 67.5 nM
same,IC90,[9],980 ± 133 nM
same,IC50,[10],576 ± 49.4 nM
same,IC90,[10],4.05 ± 3.08 µM
same,IC50,[11],439 ± 22.7 nM
same,IC90,[11],6.57 ± 3.25 µM
same,IC50,[12],232 ± 10.5 nM
same,IC90,[12],455 ± 51.1 nM
same,IC50,[13],452 ± 31 nM
same,IC90,[13],6.33 ± 1.66 µM
same,IC50,[14],541 ± 83.7 nM
same,IC90,[14],3.79 ± 1.73 µM
same,IC50,[15],456 ± 9.6 nM
same,IC90,[15],6.51 ± 1.54 µM
same,IC50,[16],416 ± 59.6 nM
same,IC90,[16],5.27 ± 0.0992 µM
same,IC50,[17],435 ± 20.1 nM
same,IC90,[17],3.98 ± 1.68 µM
same,IC50,[18],416 ± 50 nM
same,IC90,[18],6.86 ± 0.333 µM
same,IC50,[19],227 ± 9 nM
same,IC90,[19],429 ± 41.7 nM
